Reference: BindingDB's records for doi:10.1016/j.bmc.2004.10.042 (Uppsala University, 2005)

Target: T1, Dimer of Gag-Pol polyprotein [489-587] (Human immunodeficiency virus 1, UniProt P12497)
T1 construct: 489-587
Test: Enzyme Inhibition Assay
Conditions: pH 5; 30 °C
Protocol: The effects of the inhibitors on the activity of HIV-1 proteinase was determined by a fluorometric assay with an internally quenched fluorescent peptide substrate. Measurements were performed in 96-well plates with a Fluoroskan plate reader. Excitation and emission wavelengths were 355 and 500 nm, respectively.Data were analyzed by nonlinear regression by using SIMFIT, and an equation for tightly binding inhibitors.

SMILES	Ki [nM]
CCS(=O)(=O)c1ccc(-c2ccccc2CN2C[C@H](O)[C@@H](O)CN(Cc3ccccc3-c3ccc(S(=O)(=O)CC)cc3)S2(=O)=O)cc1 [(4S,5S)-2,7-bis({2-[4-(ethanesulfonyl)phenyl]phenyl}methyl)-4,5-dihydroxy-1,2,7-thiadiazepane-1,1-dione]	5200
O=S1(=O)N(Cc2ccccc2-c2cc3ccccc3o2)C[C@H](O)[C@@H](O)CN1Cc1ccccc1-c1cc2ccccc2o1 [(4S,5S)-2,7-bis({[2-(1-benzofuran-2-yl)phenyl]methyl})-4,5-dihydroxy-1,2,7-thiadiazepane-1,1-dione]	530
COc1ccc(-c2ccccc2CN2C[C@H](O)[C@@H](O)CN(Cc3ccccc3-c3ccc(OC)c(OC)c3)S2(=O)=O)cc1OC [(4S,5S)-2,7-bis({[2-(3,4-dimethoxyphenyl)phenyl]methyl})-4,5-dihydroxy-1,2,7-thiadiazepane-1,1-dione]	9400
CC(=O)c1ccc(-c2ccccc2CN2C[C@H](O)[C@@H](O)CN(Cc3ccccc3-c3ccc(C(C)=O)cc3)S2(=O)=O)cc1 [(4S,5S)-2,7-bis({[2-(4-acetylphenyl)phenyl]methyl})-4,5-dihydroxy-1,2,7-thiadiazepane-1,1-dione]	5300
CCCCc1ccc(-c2ccccc2CN2C[C@H](O)[C@@H](O)CN(Cc3ccccc3-c3ccc(CCCC)cc3)S2(=O)=O)cc1 [(4S,5S)-2,7-bis({[2-(4-butylphenyl)phenyl]methyl})-4,5-dihydroxy-1,2,7-thiadiazepane-1,1-dione]	1900
O=S1(=O)N(Cc2ccccc2-c2ccc(F)cc2)C[C@H](O)[C@@H](O)CN1Cc1ccccc1-c1ccc(F)cc1 [(4S,5S)-2,7-bis({[2-(4-fluorophenyl)phenyl]methyl})-4,5-dihydroxy-1,2,7-thiadiazepane-1,1-dione]	5300
O=S1(=O)N(Cc2ccccc2Cc2ccccc2)C[C@H](O)[C@@H](O)CN1Cc1ccccc1Cc1ccccc1 [(4S,5S)-2,7-bis[(2-benzylphenyl)methyl]-4,5-dihydroxy-1,2,7-thiadiazepane-1,1-dione]	2500
O=S1(=O)N(Cc2ccccc2)C[C@H](O)[C@@H](O)CN1Cc1ccccc1 [(4S,5S)-2,7-dibenzyl-4,5-dihydroxy-1,2,7-thiadiazepane-1,1-dione]	> 20000
CSc1ccccc1-c1ccccc1CN1C[C@H](O)[C@@H](O)CN(Cc2ccccc2-c2ccccc2SC)S1(=O)=O [(4S,5S)-4,5-dihydroxy-2,7-bis({2-[2-(methylsulfanyl)phenyl]phenyl}methyl)-1,2,7-thiadiazepane-1,1-dione]	1100
CC(C)c1cccc(-c2ccccc2CN2C[C@H](O)[C@@H](O)CN(Cc3ccccc3-c3cccc(C(C)C)c3)S2(=O)=O)c1 [(4S,5S)-4,5-dihydroxy-2,7-bis({2-[3-(propan-2-yl)phenyl]phenyl}methyl)-1,2,7-thiadiazepane-1,1-dione]	3200
O=S1(=O)N(Cc2ccccc2-c2cccc(C(F)(F)F)c2)C[C@H](O)[C@@H](O)CN1Cc1ccccc1-c1cccc(C(F)(F)F)c1 [(4S,5S)-4,5-dihydroxy-2,7-bis({2-[3-(trifluoromethyl)phenyl]phenyl}methyl)-1,2,7-thiadiazepane-1,1-dione]	2400
O=S1(=O)N(Cc2ccccc2/C=C/c2ccccc2)C[C@H](O)[C@@H](O)CN1Cc1ccccc1/C=C/c1ccccc1 [(4S,5S)-4,5-dihydroxy-2,7-bis({2-[(E)-2-phenylethenyl]phenyl}methyl)-1,2,7-thiadiazepane-1,1-dione]	2000
COc1ccccc1-c1ccccc1CN1C[C@H](O)[C@@H](O)CN(Cc2ccccc2-c2ccccc2OC)S1(=O)=O [(4S,5S)-4,5-dihydroxy-2,7-bis({[2-(2-methoxyphenyl)phenyl]methyl})-1,2,7-thiadiazepane-1,1-dione]	5100
O=S1(=O)N(Cc2ccccc2CCc2ccccc2)C[C@H](O)[C@@H](O)CN1Cc1ccccc1CCc1ccccc1 [(4S,5S)-4,5-dihydroxy-2,7-bis({[2-(2-phenylethyl)phenyl]methyl})-1,2,7-thiadiazepane-1,1-dione]	3000
Cc1cccc(-c2ccccc2CN2C[C@H](O)[C@@H](O)CN(Cc3ccccc3-c3cccc(C)c3)S2(=O)=O)c1 [(4S,5S)-4,5-dihydroxy-2,7-bis({[2-(3-methylphenyl)phenyl]methyl})-1,2,7-thiadiazepane-1,1-dione]	2700
O=[N+]([O-])c1cccc(-c2ccccc2CN2C[C@H](O)[C@@H](O)CN(Cc3ccccc3-c3cccc([N+](=O)[O-])c3)S2(=O)=O)c1 [(4S,5S)-4,5-dihydroxy-2,7-bis({[2-(3-nitrophenyl)phenyl]methyl})-1,2,7-thiadiazepane-1,1-dione]	7400
COc1ccc(-c2ccccc2CN2C[C@H](O)[C@@H](O)CN(Cc3ccccc3-c3ccc(OC)cc3)S2(=O)=O)cc1 [(4S,5S)-4,5-dihydroxy-2,7-bis({[2-(4-methoxyphenyl)phenyl]methyl})-1,2,7-thiadiazepane-1,1-dione]	9700
Cc1ccc(-c2ccccc2CN2C[C@H](O)[C@@H](O)CN(Cc3ccccc3-c3ccc(C)cc3)S2(=O)=O)cc1 [(4S,5S)-4,5-dihydroxy-2,7-bis({[2-(4-methylphenyl)phenyl]methyl})-1,2,7-thiadiazepane-1,1-dione]	1500
O=S1(=O)N(Cc2ccccc2-c2ccsc2)C[C@H](O)[C@@H](O)CN1Cc1ccccc1-c1ccsc1 [(4S,5S)-4,5-dihydroxy-2,7-bis({[2-(thiophen-3-yl)phenyl]methyl})-1,2,7-thiadiazepane-1,1-dione]	2700
O=S1(=O)N(Cc2ccccc2-c2ccccc2)C[C@H](O)[C@@H](O)CN1Cc1ccccc1-c1ccccc1 [(4S,5S)-4,5-dihydroxy-2,7-bis[(2-phenylphenyl)methyl]-1,2,7-thiadiazepane-1,1-dione]	2500
